Test results as given in patent US20240384350A1, “METHODS OF TREATING CANCER WITH KINASE INHIBITORS” (BOARD OF REGENTS, THE UNIVERSITY OF TEXAS SYSTEM, priority 2021, published 2024).

System: EGFR mutations spanning exons 18-21
Assay: Ba/F3 panel of 76 cell lines expressing EGFR mutations, selectivity over WT EGFR by structure-function group
Assay type: cell-based
Settings: Ex20ins mutations, FIG. 5A
Text: To determine the effect of EGFR mutations on TKI sensitivity, a panel of 76 cell lines expressing EGFR mutations spanning exons 18-21 was generated and screened against 18 known EGFR inhibitors representing 1st (non-covalent), 2nd (covalent), and 3rd (covalent, T790M targeting) generation TKIs, and compounds under investigation for Ex20ins. […] For the various mutations, structure-function based groups were more predictive of drug sensitivity than exon based groups as determined by spearmen correlations (p<0.0001, FIG. 1F, FIG. 2). […]
After 48-72 hours of transduction, 2 μg/ml puromycin (Invitrogen) was added to Ba/F3 cell lines in complete RPMI. […] Plates were incubated for a minimum of 10 minutes, and bioluminescence was determined using a FLUOstar OPTIMA plate reader (BMG LABTECH). […] Statistical differences between groups were determined by ANOVA as described in the figure legends. […]

Structure (SMILES): CN(C)C/C=C/C(=O)Nc1cc2c(Nc3ccc(Cl)c(Br)c3)ncnc2cn1 [Tarlox-TKI]
- sensitivity in vitro: sensitive
